PubChem BioAssay AID248 (DTP/NCI, 2004)
“And” between values parts separate entries of the source, which are not always exact repeats. Equal entries are not always repeated. Toxic doses and inconclusive results are not listed. Rule as the data show it: active = T/C of 150% or more; inactive = T/C below 125%.

Test system: L1210 leukemia ip in BDF1 mice, survival T/C
Assay: NCI In Vivo Anticancer Drug Screen. Data for tumor model L1210 Leukemia (intraperitoneal) in B6D2F1 (BDF1) mice
Details: endpoint: mean survival time, higher = longer survival
Outline: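 Survival endpoint. Drug-treated group vs vehicle group, expressed as T divided by C. Tumor passaged by transplantation.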

[1] = dose: 100.0 mg/kg/injection, schedule: Q04DX003 (ip), vehicle: Klucel (hydroxypropylcellulose) (HPC)
[2] = dose: 200.0 mg/kg/injection, schedule: Q04DX003 (ip), vehicle: Klucel (hydroxypropylcellulose) (HPC)

Measured: T/C

CC(=O)Nc1cc([N+](=O)[O-])ccc1CC(O)c1ccccc1Cl (configuration not stated)
inactive: dose: 100.0 mg/kg/injection, schedule: Q01DX009 (ip), vehicle: Klucel (hydroxypropylcellulose) (HPC) 92 % of control | [1] 97 % of control | dose: 200.0 mg/kg/injection, schedule: Q01DX009 (ip), vehicle: Klucel (hydroxypropylcellulose) (HPC) 103 % of control | [2] 108 % of control | dose: 400.0 mg/kg/injection, schedule: Q01DX009 (ip), vehicle: Klucel (hydroxypropylcellulose) (HPC) 104 % of control | dose: 400.0 mg/kg/injection, schedule: Q04DX003 (ip), vehicle: Klucel (hydroxypropylcellulose) (HPC) 103 % of control

NC(=O)C(N)Cc1ccc(O)c(O)c1 (configuration not stated)
inactive: dose: 100.0 mg/kg/injection, schedule: Q01DX009 (ip), vehicle: saline 107 % of control | dose: 100.0 mg/kg/injection, schedule: Q04DX003 (ip), vehicle: saline 102 % of control | dose: 200.0 mg/kg/injection, schedule: Q01DX009 (ip), vehicle: saline 102 % of control | dose: 200.0 mg/kg/injection, schedule: Q04DX003 (ip), vehicle: saline 98 % of control | dose: 400.0 mg/kg/injection, schedule: Q01DX009 (ip), vehicle: saline 109 % of control | dose: 400.0 mg/kg/injection, schedule: Q04DX003 (ip), vehicle: saline 115 % of control | dose: 800.0 mg/kg/injection, schedule: Q01DX009 (ip), vehicle: saline 103 % of control and 114 % of control | dose: 1600.0 mg/kg/injection, schedule: Q01DX009 (ip), vehicle: saline 104 % of control

O=C(OCc1ccccc1CN1CCCCC1)c1ccc([N+](=O)[O-])cc1
inactive: dose: 25.0 mg/kg/injection, schedule: Q04DX002 (ip), vehicle: Klucel (hydroxypropylcellulose) (HPC) 101 % of control | dose: 50.0 mg/kg/injection, schedule: Q04DX002 (ip), vehicle: Klucel (hydroxypropylcellulose) (HPC) 94 % of control | dose: 100.0 mg/kg/injection, schedule: Q04DX002 (ip), vehicle: Klucel (hydroxypropylcellulose) (HPC) 90 % of control

Nc1ncnc(N)c1NC(=O)CCCc1ccccc1
inactive: [1] 86 % of control | [2] 92 % of control

Nc1ncnc2nc(Cc3ccccc3)[nH]c12
inactive: dose: 100.0 mg/kg/injection, schedule: Q01DX001 (ip), vehicle: gum acacia 95 % of control | dose: 200.0 mg/kg/injection, schedule: Q01DX001 (ip), vehicle: gum acacia 109 % of control

C1=Nc2c(ccc3ccccc23)CS1
inactive: dose: 100.0 mg/kg/injection, schedule: Q04DX002 (ip), vehicle: other 93 % of control
